# Measurements as given in the supplement of paper PMC11208160.
# Assay: recombinant UMI read abundance after kanamycin selection (control-corrected) (log10(CPM+1)); higher = more efficient recombination; extreme values may be limits of the assay; sequences stand for … in AGTGCAGAGAAAATCGGCCAGTTTTCTCTGCCTGCAGTCCGCATGCCGTGGGACCCCTTGGGTTCTAACCTGTTGCCTAGATTTATGCAGCGGACTGCCTTTCTCCCAAAGTGATAAACCGG…AGGTTGGTTTCACT; site = the 11-nt donor
# How it was run: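 Sequencing read counts were converted to CPM, averaged over two replicates and scaled by control-derived factors. Results are given as log10(CPM+1). The reads covered the donor–target junction of recombinant UMIs from a pooled Escherichia coli screen of donor and donor-binding-loop pairs for the IS621 bridge recombinase.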
# 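Also: IS621 bridge recombinase in Escherichia coli cells against a fixed T5 target plasmid.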
row,Sequence,recombinant UMI read abundance (log10)
1,GTAGTCGCATGGACCGGTTTTCCCGGTAATCCGTATTTGCG (site GTAGTCGCTTG),1.95
2,GTAGTCGCATGGACCGGTTTTCCCGGTAATCCGTATTTGCG (site GTAGTCTCTCG),2
3,GTAGTCGCATGGACCGGTTTTCCCGGTAATCCGTATTTGCG (site GTAGTGGCTCG),0.013
4,GTAGTCGCATGGACCGGTTTTCCCGGTAATCCGTATTTGCG (site GTAGTTGCTCG),0.00541
5,GTAGTCGCATGGACCGGTTTTCCCGGTAATCCGTATTTGCG (site GTATTCGCTCG),0.011
6,GTAGTCGCATGGACCGGTTTTCCCGGTAATCCGTATTTGCG (site GTCGTCGCTCG),0.00603
7,GTAGTCGCATGGACCGGTTTTCCCGGTAATCCGTATTTGCG (site GTGGTCGCTCG),0.0189
8,GTAGTCGCATGGACCGGTTTTCCCGGTAATCCGTATTTGCG (site GTTGTCGCTCG),0.285
9,GTAGTCGCATGGACCGGTTTTCCCGGTAATCCGTATTTGCG (site TTAGTCGCTCG),1.26
10,GTAGTGACATGGACCGGTTTTCCCGGTAATCCGTATTTGCC (site GTAGTGACTGG),2.58
11,GTATAGGCATGGACCGGTTTTCCCGGTAATCCGTATTTGTA (site GTATAGGCTTA),2.22
12,GTATCTCCATGGACCGGTTTTCCCGGTAATCCGTATTTGAA (site GTATCTCCTTT),1.19
13,GTATGAACATGGACCGGTTTTCCCGGTAATCCGTATTTGAG (site GTATGAACTCT),1.87
14,GTATGCACATGGACCGGTTTTCCCGGTAATCCGTATTTGGA (site GTATGCACTTA),0.901
15,GTATGCACATGGACCGGTTTTCCCGGTAATCCGTATTTGGA (site GTATGCACTTC),0.931
16,GTATGCACATGGACCGGTTTTCCCGGTAATCCGTATTTGGA (site GTATGCACTTG),0.783
17,GTATGCACATGGACCGGTTTTCCCGGTAATCCGTATTTGGA (site GTATGCACTTT),0.924
18,GTATGGCCATGGACCGGTTTTCCCGGTAATCCGTATTTGCA (site GAATGGCCTTG),0
19,GTATGGCCATGGACCGGTTTTCCCGGTAATCCGTATTTGCA (site GCATGGCCTTG),0

row,Sequence,recombinant UMI read abundance (log10)
1,GTATGGCCATGGACCGGTTTTCCCGGTAATCCGTATTTGCA (site GGATGGCCTTG),0
2,GTATGGCCATGGACCGGTTTTCCCGGTAATCCGTATTTGCA (site GTATGGCCTTG),0
3,GTATGTTCATGGACCGGTTTTCCCGGTAATCCGTATTTGAG (site GTATGTTCTCT),2.52
4,GTATTACCATGGACCGGTTTTCCCGGTAATCCGTATTTGCA (site GTATTACCTTG),0
5,GTATTATCATGGACCGGTTTTCCCGGTAATCCGTATTTGAC (site CTAGTATCTGT),1.38
6,GTATTATCATGGACCGGTTTTCCCGGTAATCCGTATTTGAC (site GTATTATCTGT),2.66
7,GTCAAACCATGGACCGGTTTTCCCGGTAATCCGTATTTGGT (site GACAAACCTAC),0
8,GTCAAACCATGGACCGGTTTTCCCGGTAATCCGTATTTGGT (site GCCAAACCTAC),0
9,GTCAAACCATGGACCGGTTTTCCCGGTAATCCGTATTTGGT (site GGCAAACCTAC),0
10,GTCAAACCATGGACCGGTTTTCCCGGTAATCCGTATTTGGT (site GTCAAACCTAC),0
11,GTCACACCATGGACCGGTTTTCCCGGTAATCCGTATTTGTT (site GTCACACCTAA),0.00382
12,GTCACGACATGGACCGGTTTTCCCGGTAATCCGTATTTGGT (site GTCACGACTAC),1.06
13,GTCACTGCATGGACCGGTTTTCCCGGTAATCCGTATTTGAT (site GTCACTGCTAT),1.99
14,GTCAGAACATGGACCGGTTTTCCCGGTAATCCGTATTTGGC (site GTAAGAACTGC),0.371
15,GTCAGAACATGGACCGGTTTTCCCGGTAATCCGTATTTGGC (site GTCAGAACTGC),1.57
16,GTCAGAACATGGACCGGTTTTCCCGGTAATCCGTATTTGGC (site GTGAGAACTGC),0
17,GTCAGAACATGGACCGGTTTTCCCGGTAATCCGTATTTGGC (site GTTAGAACTGC),0
18,GTCAGCCCATGGACCGGTTTTCCCGGTAATCCGTATTTGAC (site GTCAGCCCTGT),1.33
19,GTCAGCGCATGGACCGGTTTTCCCGGTAATCCGTATTTGGC (site GTCAGCGCTGC),2.6

row,Sequence,recombinant UMI read abundance (log10)
1,GTCATAGCATGGACCGGTTTTCCCGGTAATCCGTATTTGTT (site GTCATAGCTAA),2.1
2,GTCATCGCATGGACCGGTTTTCCCGGTAATCCGTATTTGCC (site GTCATCGCTGG),2.35
3,GTCCCCGCATGGACCGGTTTTCCCGGTAATCCGTATTTGTA (site GTCCCCGCTTA),1.13
4,GTCCCTACATGGACCGGTTTTCCCGGTAATCCGTATTTGAG (site ATCCCTACTCT),0.0134
5,GTCCCTACATGGACCGGTTTTCCCGGTAATCCGTATTTGAG (site CTCCCTACTCT),0.0129
6,GTCCCTACATGGACCGGTTTTCCCGGTAATCCGTATTTGAG (site GTCCCTACTCT),0.168
7,GTCCCTACATGGACCGGTTTTCCCGGTAATCCGTATTTGAG (site TTCCCTACTCT),0.00698
8,GTCGCCACATGGACCGGTTTTCCCGGTAATCCGTATTTGGA (site GTCGCCACTTC),0.751
9,GTCGGCACATGGACCGGTTTTCCCGGTAATCCGTATTTGAC (site GTCGGCACTGT),2.04
10,GTCGGTACATGGACCGGTTTTCCCGGTAATCCGTATTTGAC (site GTAGGTACTGT),0.298
11,GTCGGTACATGGACCGGTTTTCCCGGTAATCCGTATTTGAC (site GTCGGTACTGT),1.32
12,GTCGGTACATGGACCGGTTTTCCCGGTAATCCGTATTTGAC (site GTGGGTACTGT),0
13,GTCGGTACATGGACCGGTTTTCCCGGTAATCCGTATTTGAC (site GTTGGTACTGT),0
14,GTCGTCGCATGGACCGGTTTTCCCGGTAATCCGTATTTGCG (site GTAGTCGCTCG),0.0332
15,GTCGTCGCATGGACCGGTTTTCCCGGTAATCCGTATTTGCG (site GTCGTCGCTCG),0.512
16,GTCGTCGCATGGACCGGTTTTCCCGGTAATCCGTATTTGCG (site GTGGTCGCTCG),0.00908
17,GTCGTCGCATGGACCGGTTTTCCCGGTAATCCGTATTTGCG (site GTTGTCGCTCG),0.0186
18,GTCGTTACATGGACCGGTTTTCCCGGTAATCCGTATTTGGC (site GTCGTTACTGC),1.78
19,GTCTAAACATGGACCGGTTTTCCCGGTAATCCGTATTTGTG (site GTCTAAACTCA),1.09
